Test results from paper PMC5522078, “Discovery and characterization of small molecules targeting the DNA-binding ETS domain of ERG in prostate cancer” (Oncotarget, 2017).

Assays:
ETS domain of PU.1 = ETS domain of PU.1 (Homo sapiens, UniProt P17947); assay: Preliminary NMR spectroscopic experiments, PU.1; format: binding
PNT1B-MOCK cells = assay: pETS-luc luciferase assay in PNT1B-MOCK cells (non-specific effect); format: cell-based, human; conditions: increasing concentrations, 48 h; compared to PNT1B-ERG cells
Protocol: (§1) All of the compounds selected from the virtual screening were tested in a luciferase-based ERG-responsive reporter assay, using two ERG-overexpressing cell lines, VCaP and PNT1B-ERG, previously developed in house. […] Data were normalized first to Renilla luciferase and then to the DMSO-media control on each plate, unless otherwise stated. Initial hit compounds were identified as those with an average normalized luciferase reading (firefly luciferase/Renilla luciferase readings) that is 60% or less of the average normalized luciferase reading of the DMSO-media control (i.e. 40% or more reduction of luciferase activity) at 10 μM. Representative example of raw Renilla luciferase readings presented in Supplementary Figure 9B. […]
(§2) Supplementary Figure 3: VPC-18005 selectively suppresses ERG-mediated transcriptional activity. […] Data are presented as the mean ± SEM of 4 technical replicates and expressed as luciferase:renilla ratio (activity).
(§3) (B) Luciferase assay was performed on VCaP cells transfected with ETS responsive luciferase reporter and treated with DMSO (0) or 0.1, 1, or 10 nM R1881 in the presence of 25 μM of VPC-18005. Data are presented as the mean ± SEM of 4 technical replicates and expressed as the luciferase:renilla ratio relative to VPC-18005 alone. […]

SOX9 = SOX9 gene expression in VCaP cells; format: cell-based, human; conditions: 25 μM, with and without 1 nM R1881
Protocol: Total RNA was extracted from VCaP cells with the use of RNeasy Plus kit (Qiagen). Reverse transcription was performed with the use of the iScript First-Strand cDNA Synthesis Kit (Bio-Rad Laboratories) with 100 ng total RNA used as template. Real time reverse-transcription (RT) polymerase chain reaction (PCR) primers for ERG synthesized by IDT (forward, 5′- CGCAGATTATCGT GCCAGCAGAT -3′; reverse, 5′- CCATATTCTTTCACC GCCCACTCC-3′) and SOX9 (Quantitect primer assay, Qiagen). Real-time quantitative RT-PCR was performed in triplicate for each sample with the use of the ABI ViiA7 QPCR thermocycler. In each reaction, 1 μl cDNA, 1 μl forward and reverse primers (or 1 μl of Quantitect primers), and 6 μl Sybr Green Master Mix (Applied Biosystems) were added with water to make a final volume of 12 μl. All primers were used at a concentration of 5 μmol/l. PCR cycling conditions were 95°C for 10 minutes followed by 40 cycles of 95°C for 15 seconds, 60°C for 1 min. Data was normalized to reference genes: GAPDH (forward, 5′- […] -3′; reverse, 5′- […] -3′) The 2^−ΔΔCT method was used to compare samples. PCR product specificity was validated with the use of a melt curve.

androgen receptor = biological target: T1, androgen receptor (Homo sapiens, UniProt P10275); assay: Androgen receptor luciferase reporter (ARR3tk-luc) assay; format: cell-based; conditions: PC3 cells transfected with AR; 1 nM R1881; 1, 5 or 10 μM
T1 construct: expressed in transfected cells; host or cells: PC3
T1 sequence (P10275 1-920): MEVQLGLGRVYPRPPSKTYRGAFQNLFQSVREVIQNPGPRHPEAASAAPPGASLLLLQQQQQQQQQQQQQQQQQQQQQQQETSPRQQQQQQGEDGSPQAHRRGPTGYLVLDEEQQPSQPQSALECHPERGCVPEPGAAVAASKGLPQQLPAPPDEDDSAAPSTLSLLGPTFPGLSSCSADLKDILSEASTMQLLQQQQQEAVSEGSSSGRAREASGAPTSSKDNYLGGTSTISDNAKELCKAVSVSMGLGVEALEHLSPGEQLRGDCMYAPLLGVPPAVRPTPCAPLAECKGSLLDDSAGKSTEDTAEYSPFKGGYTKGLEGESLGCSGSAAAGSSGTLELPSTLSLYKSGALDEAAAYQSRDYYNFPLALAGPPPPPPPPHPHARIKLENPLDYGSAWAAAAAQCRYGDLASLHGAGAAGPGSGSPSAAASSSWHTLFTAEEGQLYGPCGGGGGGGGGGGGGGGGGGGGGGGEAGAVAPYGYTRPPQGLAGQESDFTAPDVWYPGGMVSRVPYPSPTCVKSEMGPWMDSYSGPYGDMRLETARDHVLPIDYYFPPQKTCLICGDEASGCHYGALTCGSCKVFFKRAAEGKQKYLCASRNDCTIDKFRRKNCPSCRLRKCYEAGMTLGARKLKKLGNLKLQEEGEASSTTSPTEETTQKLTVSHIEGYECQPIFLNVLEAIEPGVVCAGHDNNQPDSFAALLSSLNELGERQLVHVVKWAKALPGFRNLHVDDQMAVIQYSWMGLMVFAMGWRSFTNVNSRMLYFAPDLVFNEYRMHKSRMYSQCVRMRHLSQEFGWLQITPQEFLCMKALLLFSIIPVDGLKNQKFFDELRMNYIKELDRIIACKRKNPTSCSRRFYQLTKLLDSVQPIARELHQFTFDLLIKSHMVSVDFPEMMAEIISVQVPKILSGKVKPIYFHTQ
Protocol: as §1, §2, §3

VCaP cells = tested on: VCaP cells; design: method as in PMID 21559405; conditions: read-out: IC50 for cytotoxicity in VCaP cells; cited from earlier work

SMILES: CC(C)c1ccc(C=N/N=C2\NC(=O)[C@@H](CC(=O)O)S2)cc1 (stereo in doubt) [VPC-18005, 2-((Z)-2-(((Z)-4-isopropylbenzylidene)hydrazono)-4-oxothiazolidin-5-yl)acetic acid]
- Interaction with the ETS domain of PU.1 (ETS domain of PU.1): interacts
- Impact on the reporter signal in PNT1B-MOCK (PNT1B-MOCK cells): minimal impact
- Basal and R1881-stimulated SOX9 mRNA and protein expression (SOX9): markedly decreased
- Effect on androgen receptor luciferase reporter (ARR3tk-luc) expression (androgen receptor): no significant effect

SMILES: COc1ccc(C(=O)CC2(O)C(=O)Nc3c(Cl)ccc(Cl)c32)cc1 (centres unmarked) [YK-4-279, reference compound]
- IC50 (VCaP cells): 10 µM
